Calls of active or inactive are those of the source. Some results are limits rather than exact numbers.

Test [1] concerns the target Cytochrome P450 2C9 (Homo sapiens, UniProt P11712).
For test [2], the target named is T1, Cytochrome P450 1A2 (Homo sapiens, UniProt P05177).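 Also: PubChem cytochrome P450 panel assay, CYP1A2 panel member.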
T1 sequence (P05177 whole entry): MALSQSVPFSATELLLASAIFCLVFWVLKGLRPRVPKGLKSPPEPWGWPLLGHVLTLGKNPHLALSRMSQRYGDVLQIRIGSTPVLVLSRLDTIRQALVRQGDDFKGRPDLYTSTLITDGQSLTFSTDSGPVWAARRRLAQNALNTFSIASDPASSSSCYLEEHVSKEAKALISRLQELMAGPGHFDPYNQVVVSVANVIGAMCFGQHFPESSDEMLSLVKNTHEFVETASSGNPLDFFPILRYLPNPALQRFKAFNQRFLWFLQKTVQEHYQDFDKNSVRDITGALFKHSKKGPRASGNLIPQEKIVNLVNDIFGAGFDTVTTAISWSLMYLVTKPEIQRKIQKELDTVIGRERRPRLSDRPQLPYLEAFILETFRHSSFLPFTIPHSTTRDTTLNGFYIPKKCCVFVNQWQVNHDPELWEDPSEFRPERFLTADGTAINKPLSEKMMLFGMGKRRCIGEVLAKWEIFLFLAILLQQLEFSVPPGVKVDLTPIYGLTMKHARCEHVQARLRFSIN

The nature of test [3]: HEp-2 cell cytotoxicity, dose response, cytotoxicity control for RSV inhibitor project, HTS (AID 2410). In kind it is functional. As to conditions: human respiratory syncytial virus.
Test [4] has as its target T2, Corticotropin-releasing factor receptor 2/Corticotropin-releasing factor-binding protein (Homo sapiens, UniProt P24387+Q13324).
T2 sequence (Q13324 whole entry): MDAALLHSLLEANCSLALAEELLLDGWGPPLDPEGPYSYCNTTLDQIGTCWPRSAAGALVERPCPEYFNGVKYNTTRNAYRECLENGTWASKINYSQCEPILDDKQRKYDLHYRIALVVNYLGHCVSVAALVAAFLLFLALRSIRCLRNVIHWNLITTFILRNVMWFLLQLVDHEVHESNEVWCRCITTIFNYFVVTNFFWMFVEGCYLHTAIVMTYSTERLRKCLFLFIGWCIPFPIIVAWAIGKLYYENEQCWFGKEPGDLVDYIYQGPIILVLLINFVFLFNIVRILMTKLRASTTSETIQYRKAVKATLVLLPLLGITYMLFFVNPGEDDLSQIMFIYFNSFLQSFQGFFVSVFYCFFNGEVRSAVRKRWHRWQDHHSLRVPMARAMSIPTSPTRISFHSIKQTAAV
T2 sequence (P24387 whole entry): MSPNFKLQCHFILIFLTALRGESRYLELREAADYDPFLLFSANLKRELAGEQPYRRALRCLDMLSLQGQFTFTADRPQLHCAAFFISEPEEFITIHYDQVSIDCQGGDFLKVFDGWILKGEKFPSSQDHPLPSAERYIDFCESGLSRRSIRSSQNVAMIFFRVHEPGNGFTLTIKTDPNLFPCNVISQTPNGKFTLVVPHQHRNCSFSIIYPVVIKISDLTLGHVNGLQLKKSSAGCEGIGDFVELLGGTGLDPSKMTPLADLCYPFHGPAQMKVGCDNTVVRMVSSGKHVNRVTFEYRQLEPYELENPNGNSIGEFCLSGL
In words: activators of CRF receptor 2 with binding protein – uHTS hits, confirmation (AID 602473). The format is functional. As to conditions: read-out: EC50_Mean.

In test [5] the target is T3, Replicative DNA helicase DnaB (Mycobacterium tuberculosis, UniProt P9WMR3).
T3 sequence (P9WMR3 whole entry): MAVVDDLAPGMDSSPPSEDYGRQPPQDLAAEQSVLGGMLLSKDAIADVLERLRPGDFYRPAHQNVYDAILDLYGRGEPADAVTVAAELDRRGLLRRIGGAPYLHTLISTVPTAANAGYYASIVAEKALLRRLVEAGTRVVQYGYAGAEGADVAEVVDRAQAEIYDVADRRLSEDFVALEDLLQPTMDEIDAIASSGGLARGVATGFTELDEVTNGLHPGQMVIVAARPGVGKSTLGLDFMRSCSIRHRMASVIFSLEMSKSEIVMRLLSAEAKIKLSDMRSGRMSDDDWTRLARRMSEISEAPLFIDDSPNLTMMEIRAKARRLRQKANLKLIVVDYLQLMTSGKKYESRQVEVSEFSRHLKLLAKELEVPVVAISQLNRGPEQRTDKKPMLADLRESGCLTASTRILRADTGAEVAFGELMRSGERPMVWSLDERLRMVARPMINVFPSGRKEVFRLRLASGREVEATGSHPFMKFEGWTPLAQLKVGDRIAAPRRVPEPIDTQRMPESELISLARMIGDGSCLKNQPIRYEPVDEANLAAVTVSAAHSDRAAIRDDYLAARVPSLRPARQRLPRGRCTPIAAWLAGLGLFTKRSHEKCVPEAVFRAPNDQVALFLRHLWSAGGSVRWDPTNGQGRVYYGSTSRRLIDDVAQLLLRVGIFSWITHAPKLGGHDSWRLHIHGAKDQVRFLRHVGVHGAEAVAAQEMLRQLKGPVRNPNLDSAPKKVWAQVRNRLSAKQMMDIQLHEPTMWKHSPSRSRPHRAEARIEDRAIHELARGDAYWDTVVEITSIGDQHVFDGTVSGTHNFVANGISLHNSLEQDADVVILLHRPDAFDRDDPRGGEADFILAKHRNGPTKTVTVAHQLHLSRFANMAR
In words: DnaB intein splicing inhibitors, dose response, biochemical, cell-free fluorescence (AID 449749). The format is functional.

Test [6] deals with T4, Protein RecA (Mycobacterium tuberculosis, UniProt P9WHJ3).
T4 sequence (P9WHJ3 whole entry): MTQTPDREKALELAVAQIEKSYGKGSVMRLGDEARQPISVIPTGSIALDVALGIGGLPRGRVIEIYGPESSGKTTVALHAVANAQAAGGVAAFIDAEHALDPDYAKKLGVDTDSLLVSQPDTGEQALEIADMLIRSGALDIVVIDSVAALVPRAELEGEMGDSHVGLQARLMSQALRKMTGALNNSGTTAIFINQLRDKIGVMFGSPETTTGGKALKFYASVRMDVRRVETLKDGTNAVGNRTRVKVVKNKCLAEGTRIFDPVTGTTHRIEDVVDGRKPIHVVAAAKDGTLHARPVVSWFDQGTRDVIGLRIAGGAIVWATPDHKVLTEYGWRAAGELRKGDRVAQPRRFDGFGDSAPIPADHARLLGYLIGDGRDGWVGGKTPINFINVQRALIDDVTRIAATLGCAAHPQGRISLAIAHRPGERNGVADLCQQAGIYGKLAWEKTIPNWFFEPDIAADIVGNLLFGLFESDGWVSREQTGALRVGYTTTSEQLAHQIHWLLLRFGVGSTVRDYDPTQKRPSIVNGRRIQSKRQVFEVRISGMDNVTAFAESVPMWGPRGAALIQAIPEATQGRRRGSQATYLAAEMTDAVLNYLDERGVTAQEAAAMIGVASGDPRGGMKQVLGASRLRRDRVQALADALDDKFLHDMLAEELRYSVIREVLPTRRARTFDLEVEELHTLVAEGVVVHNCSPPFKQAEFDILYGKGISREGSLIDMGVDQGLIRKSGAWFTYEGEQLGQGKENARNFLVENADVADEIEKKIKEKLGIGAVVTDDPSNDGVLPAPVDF
In words: Fluorescence Cell-Free Homogeneous Dose Retest to Identify Inhibitors of RecA-Intein Splicing Activity. [Related pubchem assays (depositor defined):AID2097, AID2223, AID489010, AID492950]. In kind it is functional.

For test [7], the target named is T5, Rac GTPase-activating protein 1 (Homo sapiens, UniProt Q9H0H5).
T5 sequence (Q9H0H5 whole entry): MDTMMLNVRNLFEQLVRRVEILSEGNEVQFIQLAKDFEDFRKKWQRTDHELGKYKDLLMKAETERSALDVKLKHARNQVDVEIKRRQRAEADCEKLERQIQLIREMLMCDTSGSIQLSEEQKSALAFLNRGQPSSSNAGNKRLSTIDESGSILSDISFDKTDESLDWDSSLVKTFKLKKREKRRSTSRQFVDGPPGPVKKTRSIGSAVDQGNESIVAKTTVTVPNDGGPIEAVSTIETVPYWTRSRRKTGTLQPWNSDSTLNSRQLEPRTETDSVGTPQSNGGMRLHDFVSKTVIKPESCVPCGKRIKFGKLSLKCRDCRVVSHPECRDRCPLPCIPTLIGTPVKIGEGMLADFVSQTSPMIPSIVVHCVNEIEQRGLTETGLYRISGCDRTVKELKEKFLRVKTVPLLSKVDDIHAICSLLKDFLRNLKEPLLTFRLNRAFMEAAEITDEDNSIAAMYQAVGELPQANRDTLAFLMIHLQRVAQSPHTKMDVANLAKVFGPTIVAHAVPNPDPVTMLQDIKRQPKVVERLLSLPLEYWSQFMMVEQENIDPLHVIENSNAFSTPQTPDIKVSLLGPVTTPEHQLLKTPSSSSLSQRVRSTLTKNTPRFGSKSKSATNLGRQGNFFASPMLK
The test is described as follows: MgcRacGAP GTPase-activating activity inhibitors, confirmation, biochemical, ADP Hunter fluorescence, primary and confirmatory (AID 624330). The format is functional.

Test [8] has as its target T6, RNA-binding protein pos-1 (Caenorhabditis elegans, UniProt G5EF15).
T6 sequence (G5EF15 whole entry): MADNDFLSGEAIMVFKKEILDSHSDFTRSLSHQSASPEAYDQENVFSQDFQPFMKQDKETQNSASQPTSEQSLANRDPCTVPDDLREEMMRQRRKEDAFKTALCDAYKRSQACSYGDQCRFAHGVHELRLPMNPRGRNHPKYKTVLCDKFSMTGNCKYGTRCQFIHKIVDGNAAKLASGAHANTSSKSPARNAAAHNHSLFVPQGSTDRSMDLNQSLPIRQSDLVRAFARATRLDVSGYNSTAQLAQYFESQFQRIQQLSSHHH
In words: inhibitors of POS-1/mex-3 RNA binding, dose response, biochemical, fluorescence polarization (AID 1964).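 Also: purified POS-1 fused to maltose binding protein made in E. coli; potency of compounds blocking POS-1 binding to fluorescent RNA.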 Background: In fluorescence polarisation assays a small probe gives low polarisation when free and higher when bound to something large.

Chain of Cytochrome P450 2C9 (P11712 whole entry): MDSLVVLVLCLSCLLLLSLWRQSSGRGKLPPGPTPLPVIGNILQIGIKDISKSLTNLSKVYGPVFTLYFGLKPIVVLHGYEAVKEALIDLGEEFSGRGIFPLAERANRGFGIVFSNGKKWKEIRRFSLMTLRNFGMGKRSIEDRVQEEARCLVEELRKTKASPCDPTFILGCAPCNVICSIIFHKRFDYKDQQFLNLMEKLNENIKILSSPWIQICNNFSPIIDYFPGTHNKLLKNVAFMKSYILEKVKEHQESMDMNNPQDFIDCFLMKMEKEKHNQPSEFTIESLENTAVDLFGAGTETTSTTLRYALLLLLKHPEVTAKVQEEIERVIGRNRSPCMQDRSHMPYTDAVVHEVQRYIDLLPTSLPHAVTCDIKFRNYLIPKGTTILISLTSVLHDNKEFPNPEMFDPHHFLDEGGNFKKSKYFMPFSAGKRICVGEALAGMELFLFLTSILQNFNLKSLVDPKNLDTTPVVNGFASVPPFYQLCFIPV

A word on the AC50: it is the concentration at which the activity in the assay is half-maximal. For `CCOP(=O)(OCC)c1nc(/C=C/c2ccccc2)oc1NCc1ccccc1`, the results for the AC50 in test [1] and in test [2] were 4.47 µM (inconclusive) and 15.8 µM (inconclusive), respectively.
`CCc1cc2c(O)ncnc2s1`: the AC50 was 28.2 µM (inconclusive) in test [1] and 20 µM (inconclusive) in test [2].
Usually CC50 stands for the concentration giving 50% cytotoxicity. As for `CCn1nc(C(=O)Nc2ccccc2N2CCCC2)c2ccccc2c1=O`, the CC50 in test [3] is > 50 µM (active).
`O=C(Nc1cccc(S(=O)(=O)N2CCCCC2)c1)c1ccccc1NS(=O)(=O)c1ccc(F)cc1`: in test [4], the EC50 is > 53 µM (inactive).
Same read-out and setting: in the case of `COc1ccc(/C(O)=C/c2nc3ccccc3n(-c3ccccc3)c2=O)cc1` it was 7.85 µM (active).
The same measure, in the same setting: next, `C=CCn1c(=O)c2ccccc2n2c(SCC(=O)N3CCCc4ccccc43)nnc12`: > 53 µM (inactive).
Turning to `O=C(CCCN1C(=O)c2cccc3cccc(c23)C1=O)N1CCN(Cc2ccc3c(c2)OCO3)CC1`, the half-maximal cytotoxic concentration (CC50) in test [3] is 43.7 µM (active).
Turning to `Cc1nc2sccn2c(=O)c1S(=O)(=O)Nc1cccc(Cl)c1C`, in test [4], the EC50 was > 53 µM (inactive).
On to `O=S(=O)(c1ccc2c(c1)OCCO2)N1CCN(c2cccc(Cl)c2)CC1`, for which the 50% cytotoxic concentration (CC50) in test [3] is 34.9 µM (active).
In the case of `CCOc1cc(N(CC)CC)ccc1/C=C(/C#N)c1nc2ccccc2[nH]1`, in test [3], the CC50 is 21.4 µM (active).
The same measure, in the same setting: in the case of `COc1cc(OC)cc(C(=O)Nc2ccc(-c3nc4ccccc4o3)c(O)c2)c1` it was 17.6 µM (active).
Consider `Nc1ccc(S(=O)(=O)Nc2cnc3ccccc3n2)cc1` [SULFAQUINOXALINE SODIUM], for which the half-maximal activity concentration (AC50) in test [1] was 10 µM (inconclusive).
Turning to `COC(=O)C1=C(c2ccc(C(C)=O)cc2)C[C@@H]2CC[C@H]1N2C(=O)NCc1ccc(C(F)(F)F)cc1`, in test [4], the EC50 was 4.94 µM (active).
What is called IC50 is the concentration at which inhibition is half-maximal. Take `Nc1ccc2[nH]c(CCCCc3nc4ccccc4[nH]3)nc2c1`: the AC50 in test [5] is > 380 µM (inactive). The EC50 in test [6] is 16.9 µM (active). In addition, in test [7], the half-inhibitory concentration (IC50) was 57.3 µM (active).
Turning to `COc1ncc2nc(-c3cccs3)c(=O)n(C)c2n1`, in test [1], the AC50 was 12.6 µM (inconclusive).
As for `CCOc1ccc2nc(NC(=O)COc3ccc(N(C)S(=O)(=O)c4ccc(C)cc4)cc3)sc2c1`, the CC50 in test [3] is 1.78 µM (active).
Still for that read-out and setting: in the case of `CCN(CC)c1ccc(/C=N/c2sc3c(c2C#N)C2CCN3CC2)c(O)c1` it was 6.56 µM (active); in that of `CCc1sc(C(=O)Nc2ccc3c(c2)OCCO3)cc1Br`, 10.7 µM (active).
For `CCCCc1ccc(-c2csc(/C(C#N)=C/c3ccc(C)o3)n2)cc1`, the values for the concentration at half-maximal activity (AC50) in test [1] and in test [2] were 3.16 µM (inconclusive) and 2 µM (inconclusive), respectively.
Regarding `CC(=O)N1CCc2ccc(S(=O)(=O)N3CCN(C)CC3)cc21`, the EC50 in test [4] is > 53 µM (inactive).
The same measure, in the same setting: in the case of `CCOc1cc(C=C2C(=O)c3ccccc3C2=O)ccc1OCC(=O)Nc1ccc(C)cc1` it was > 53 µM (inactive).
In the case of `Cc1cccc(N2C(=O)/C(=C/c3ccc(N4CCN(C)CC4)o3)C(=O)NC2=S)c1C`, in test [8], the EC50 is > 300 µM (inconclusive).
Consider `COc1ccccc1CNC(=O)CCCn1nc(C)c2c(C)n(-c3ccc(C)cc3)nc2c1=O`, for which, in test [3], the CC50 was 32 µM (active).
Turning to `Cc1cc(C)c(NC(=O)C[S+]([O-])CC(=O)NCCCc2ccccc2)c(C)c1` (stereo not drawn), the half-maximal activity concentration (AC50) in test [1] was 28.2 µM (inconclusive).
For `Oc1ccc(C[C@H]2CNCCN2CCC23CC4CC(CC(C4)C2)C3)cc1`, in test [3], the CC50 was 14.2 µM (active).
As for `CN1CCN(Cc2cc(=O)oc3ccc(Cl)cc23)CC1`, the AC50 in test [5] is > 380 µM (inactive). Further, the EC50 in test [6] is > 380 µM (inactive).
As to `O=C(O)[C@@H](S)[C@H](S)C(=O)O`, the AC50 in test [1] was 3.98 µM (inconclusive).

For the origin of these results see ChEMBL document CHEMBL1201862, “PubChem BioAssay data set” (2004).
